Assay results reported in patent publication US6156774A, “Beta-thiopropionyl-amino acid derivatives and their use as beta-lactamase inhibitors” (SmithKline Beecham P.L.C., priority 1996, dated 2000).

Target: B. fragilis CfiA metallo-β-lactamase (Bacteroides fragilis, UniProt P25910)
Assay: I50 screen, nitrocefin reporter substrate
Assay type: biochemical
Conditions: 25 mM PIPES pH 7, 37° C., nitrocefin 91 μM, 5 minute preincubation, Zn2+ 100 μM; read-out: I50 against B. fragilis CfiA metallo-β-lactamase
Description: The inhibitory activity of the compounds of the invention was measured in 25 mM PIPES pH 7 buffer at 10 concentrations (1000, 333, 111, 37, 12.3, 4.1, 1.4, 0.46, 0.15 and 0.05 μM) at 37° C. using nitrocefin (91 μM final concentration) as the reporter substrate. The assays were performed with a 5 minute preincubation of enzyme and inhibitor and were conducted in the presence of added zinc sulphate (Zn^2+ 100 μM, final concentration). the methodology is described in detail in the following references: Payne et al (1991), J. Antimicrob. Chemother., 28:255; Payne et al (1994), Antimicrob. Agents and Chemother., 38:767.

Sequence of B. fragilis CfiA metallo-β-lactamase (P25910 19-249): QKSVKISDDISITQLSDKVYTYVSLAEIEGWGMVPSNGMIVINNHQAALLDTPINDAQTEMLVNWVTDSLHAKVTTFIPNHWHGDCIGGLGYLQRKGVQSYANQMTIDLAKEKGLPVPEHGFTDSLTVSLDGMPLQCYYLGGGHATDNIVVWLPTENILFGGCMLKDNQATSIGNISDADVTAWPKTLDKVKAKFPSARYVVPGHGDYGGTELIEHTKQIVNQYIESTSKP

Structure (SMILES) | IC50 [nM]
O=C(NC(C(=O)O)c1ccc(Cc2ccccc2)s1)C(CS)CCc1ccccc1 (racemic) [34 (more polar isomer), 2-[(5-Benzyl)thien-2-yl]-N-[2-(mercaptomethyl)-4-phenylbutyryl]glycine] | < 1000
O=C(NC(C(=O)O)c1cccc(Oc2ccccc2)c1)C(CS)CCc1ccccc1 (single isomer, unassigned) [Example 3, N-(2'-mercaptomethyl-4'-phenylbutanoyl)-m-phenoxy-phenylglycine] | < 1000
O=C(NC(C(=O)O)c1cccc(Oc2ccccc2)c1)C(CS)CCc1ccccc1 (single isomer, unassigned) [Example 4, N-(2'-mercaptomethyl-4'-phenylbutanoyl)-m-phenoxy-phenylglycine] | < 1000
O=C(N[C@@H](C(=O)O)c1ccc(OCc2ccccc2)cc1)C(CS)CCc1ccccc1 (single isomer, unassigned) [Example 19, N-(2'-mercaptomethyl-4'-phenylbutanoyl)-p-benzyloxy-D-phenylglycine] | < 1000
O=C(N[C@@H](C(=O)O)c1ccc(OCc2cccs2)cc1)C(CS)CCc1ccccc1 (single isomer, unassigned) [Example 21, N-(2'-mercaptomethyl-4'-phenylbutanoyl)-p-(2"-thienylmethoxy)-D-phenylglycine] | < 1000
CN(C)c1ccc(COc2ccc([C@@H](NC(=O)C(CS)CCc3ccccc3)C(=O)O)cc2)cc1 (single isomer, unassigned) [Example 48, N-(2'-mercaptomethyl-4'-phenylbutanoyl)-p-(p-dimethylamino)-benzyloxy-D-phenylglycine] | < 1000
O=C(O)c1cccc(COc2ccc([C@@H](NC(=O)C(CS)CCc3ccccc3)C(=O)O)cc2)c1 (single isomer, unassigned) [Example 50, N-(2'-mercaptomethyl-4'-phenylbutanoyl)-p-(m-carboxy)-benzyloxy-D-phenylglycine] | < 1000
O=C(N[C@@H](C(=O)O)c1ccc(OCc2ccc([N+](=O)[O-])cc2)cc1)C(CS)CCc1ccccc1 (single isomer, unassigned) [Example 53, N-(2'-mercaptomethyl-4'-phenylbutanoyl)-p-(p-nitro)-benzyloxy-D-phenylglycine] | < 1000
CN(C)c1ccc(CCOc2ccc([C@@H](NC(=O)C(CS)CCc3ccccc3)C(=O)O)cc2)cc1 (single isomer, unassigned) [Example 66, N-(2'-mercaptomethyl-4'-phenylbutanoyl)-p-(p-dimethylamino)-phenethyloxy-D-phenylglycine] | < 1000
O=C(N[C@@H](C(=O)O)c1ccc(OCc2ccc(OCc3ccccc3)cc2)cc1)C(CS)CCc1ccccc1 (single isomer, unassigned) [Example 69, N-(2'-mercaptomethyl-4'-phenylbutanoyl)-p-(p-benzyloxy)-benzyloxy-D-phenylglycine] | < 1000
O=C(N[C@@H](C(=O)O)c1ccc(OCc2ccncc2)cc1)C(CS)CCc1ccccc1 (stereo partly drawn) [Example 55, N-(2'-RS-mercaptomethyl-4'-phenylbutanoyl)-p-(4-pyridylmethoxy)-D-phenylglycine] | < 1000
O=C(N[C@@H](C(=O)O)c1ccc(OCc2ccccn2)cc1)C(CS)CCc1ccccc1 (stereo partly drawn) [Example 56, N-(2'-RS-mercaptomethyl-4'-phenylbutanoyl)-p-(2-pyridylmethoxy)-D-phenylglycine] | < 1000
C[n+]1cccc(COc2ccc([C@@H](NC(=O)C(CS)CCc3ccccc3)C(=O)[O-])cc2)c1 (stereo partly drawn) [Example 67, N-(2'-RS-mercaptomethyl-4'-phenylbutanoyl)-p-(N-methyl-3-pyridiniummethoxy)-D-phenylglycine] | < 1000

Test system: Bacteroides fragillis 262 strain, which produces CfiA metallo-β-lactamase
Assay: Antibacterial activity (MIC) in combination with meropenem
Assay type: cell-based
Conditions: read-out: MIC of compound alone
Description: Antibacterial activity of compounds of the invention in combination with the carbapenem antibiotic, meropenem, against the Bacteroides fragillis 262 strain, which produces CfiA metallo-β-lactamase:
[MIC=minimum inhibitory concentration (μg/ml)]

Structure (SMILES) | MIC [µg/mL]
O=C(NC(C(=O)O)c1cccc(Oc2ccccc2)c1)C(CS)CCc1ccccc1 (single isomer, unassigned) [Example 4, N-(2'-mercaptomethyl-4'-phenylbutanoyl)-m-phenoxy-phenylglycine] | > 256
O=C(NC(C(=O)O)c1ccc(Cc2ccccc2)s1)C(CS)CCc1ccccc1 (centres unmarked) [Example 24, 2-[(5-Benzyl)thien-2-yl]-N-[2-(mercaptomethyl)-4-phenylbutyryl]glycine] | > 256
O=C(NC(C(=O)O)c1ccc(CC2CCOC2)s1)C(CS)CCc1ccccc1 (centres unmarked) [Example 26, 2-[5-(Tetrahydrofuran-3-ylmethyl)thien-2-yl]-N-[2-(mercaptomethyl)-4-phenylbutyryl]glycine] | > 256

Same assay, conditions: read-out: MIC of meropenem alone

Structure (SMILES) | MIC [µg/mL]
C[C@@H](O)[C@H]1C(=O)N2C(C(=O)O)=C(S[C@@H]3CN[C@H](C(=O)N(C)C)C3)[C@H](C)[C@H]12 [meropenem, reference compound] | > 128
